According to patent US10561638B2, “Methods for treating dependence” (Biotie Therapies, Inc., priority 2007, dated 2020):

Columns and labels:
[1] = system: norepinephrine and dopamine levels; test: Cortex and mesenteric artery catecholamines in SHRs after 7 and 25 days; type: in vivo, spontaneous hypertensive rats
Experimental: Nepicastat at 1 and 10 mg/kg was prepared in terms of the free base. The weighings were dissolved in vehicle (dH2O) to yield oral doses that could be administered in a volume of 10.0 ml/kg.
Male spontaneous hypertensive rats (SHRs), 16-17 weeks old at the onset of the study, were used. Animals were allowed food and water ad libitum. Animals were randomly assigned to one of the following treatment groups: oral administration of nepicastat at 10 mg/kg, 1 mg/kg, or a vehicle group of deionized water at 10 ml/kg. Rats were dosed orally once a day for 7 or 25 days with vehicle, 1 mg/kg or 10 mg/kg nepicastat (n=8) except for day 25, where n=9. On day 7, four hours after compound administration, animals were anesthetized with halothane, decapitated and the cortex and mesenteric artery were harvested, weighed, and analyzed from 24 rats (n=8/treatment group). The remaining […] continued receiving oral administration with one of the three treatments for the following 18 days. At 4 hours after the last treatment the mesenteric artery and cortex from this group were harvested, weighed, and analyzed for catecholamine levels.
Statistically, the three treatments were compared at each time period (7 or 25 days) using a non-parametric one-way analysis of variance (ANOVA). Pairwise comparisons of each treatment with control were performed using Fisher's LSD strategy on the means, adjusted for differences in sample size, to control the experiment-wise error rate. Each variable was analyzed separately. For FIGS. 6-11, *, p<0.05 and **, P<0.01.

[2] = Plasma and tissue compound levels in dogs; type: in vivo, beagle dogs
Experimental: Male Beagle dogs (Marshall farms, North Rose, N.Y.) weighing between 9-16 kg were used in the study. The animals were allowed water ad libitum and given food once daily at ˜10.00 AM. Animals were randomly assigned to one of the following treatment groups (n=8/group): placebo (empty capsule), or nepicastat at 2 mg/kg b.i.d (4 mg/kg/day). Each animal received 2 doses daily, morning and afternoon (8-10 hours apart). Daily blood samples (10 ml) were drawn 6 h after the AM dose for measurement of plasma levels of nepicastat and catecholamines. The blood was collected in tubes containing heparin and glutathione and centrifuged at −4° C. within 1 h of collection. The plasma was separated and divided into two samples, one for the measurement of plasma catecholamines and the other for analysis of nepicastat.
Plasma norepinephrine (NE), dopamine (DA) and epinephrine (EPI) were analyzed by HPLC using electrochemical detection. Plasma concentration of nepicastat was determined by HPLC using electrochemical detection.
Thirty-two male beagle dogs, weighing 10-12 kg, were randomly assigned to one of the following 4 treatment groups (n=8 per group): nepicastat at 0 mg/kg/day (placebo), 10 mg/kg/day (5 mg/kg b.i.d.), 30 mg/kg (15 mg/kg b.i.d.), or 60 mg/kg/day (30 mg/kg b.i.d.). Dog numbers 1-16 were assigned as dose group A and dog numbers 17-32 as dose group B. The terminal surgery for tissue harvest was performed over 2 days with 16 animals studied per day. Two or 3 days before the first compound administration each dog was weighed and skin regions overlying both cephalic, saphenous and jugular veins were shaved. Dosing consisted of oral administration of one capsule with the second given 8-10 hr later. Dogs were dosed as scheduled on days 1-3. On day 4, prior to the AM dose, 3 ml of blood were obtained from a jugular vein for determination of baseline plasma compound levels. The dog was then administered the AM dose, and at 1, 2, 4 and 8 hr following the dose additional 3 ml blood samples were collected for determination of plasma compound levels. […]

[3] = system: brain dopamine/norepinephrine ratio; test: Dopamine/norepinephrine ratios in the brain of rodents; details: in vivo
Experimental: Dopamine/norepinephrine ratios in the brain of rodents treated with nepicastat were determined. Dopamine/norepinephrine ratios increased in the brains of rodents treated with nepicastat or disulfuram.

[4] = cerebral cortex, 7 days, 10 mg/kg
[5] = mesenteric artery, 7 and 25 days, 10 mg/kg

Cl.NCc1c[nH]c(=S)n1[C@H]1CCc2c(F)cc(F)cc2C1 [nepicastat, (S)-5-Aminomethyl-1-(5,7-difluoro-1,2,3,4-tetrahydronaphth-2-yl)-2,3-dihydro-2-thioxo-1H-imidazole hydrochloride]
norepinephrine levels and dopamine/norepinephrine ratio vs vehicle ([1]; cerebral cortex, 7 days, 1 mg/kg): no significant (p>0.05) differences | dopamine/norepinephrine ratio vs vehicle [1, 4]: significantly (p<0.05) higher | norepinephrine levels vs vehicle [1, 4]: significantly (p<0.1) lower | dopamine levels vs vehicle ([1]; cerebral cortex, 7 days, 1 or 10 mg/kg): no significant (p>0.05) differences | dopamine levels vs vehicle ([1]; cortex, 25 days, 1 mg/kg): significantly (p<0.05) higher | dopamine/norepinephrine ratio vs vehicle ([1]; cortex, 25 days, 1 mg/kg): significantly (p<0.01) greater | dopamine/norepinephrine ratio vs vehicle ([1]; cortex, 25 days, 10 mg/kg): significantly greater (p<0.05) | norepinephrine levels vs control ([1]; cortex, 25 days, either dose): not significantly (p.>0.05) different | all parameters vs control ([1]; mesenteric artery, 1 mg/kg): None of the parameters measured were significantly (p<0.05) different | dopamine levels and dopamine/norepinephrine ratios vs vehicle [1, 5]: significantly higher dopamine levels and dopamine/norepinephrine ratios | norepinephrine levels vs vehicle [1, 5]: no differences in norepinephrine levels | time of peak plasma levels of the drug ([2]; 2 mg/kg bid, sampled 6 h after AM dose): 2 days post-dose | dose proportionality of nepicastat concentration in plasma and tissue ([2]; 10, 30, 60 mg/kg/day, Day 4 and Day 5): dose-proportional | levels of nepicastat in tissues vs plasma ([2]; Day 5, all tissues examined): higher than those in plasma | dopamine/norepinephrine ratios in the brain [3]: increased
